Biological target: T1, ALK5 kinase (Homo sapiens, UniProt P36897)
T1 construct: GST; purchased Thermo Fisher Scientific Solutions
T1 sequence (P36897 34-503): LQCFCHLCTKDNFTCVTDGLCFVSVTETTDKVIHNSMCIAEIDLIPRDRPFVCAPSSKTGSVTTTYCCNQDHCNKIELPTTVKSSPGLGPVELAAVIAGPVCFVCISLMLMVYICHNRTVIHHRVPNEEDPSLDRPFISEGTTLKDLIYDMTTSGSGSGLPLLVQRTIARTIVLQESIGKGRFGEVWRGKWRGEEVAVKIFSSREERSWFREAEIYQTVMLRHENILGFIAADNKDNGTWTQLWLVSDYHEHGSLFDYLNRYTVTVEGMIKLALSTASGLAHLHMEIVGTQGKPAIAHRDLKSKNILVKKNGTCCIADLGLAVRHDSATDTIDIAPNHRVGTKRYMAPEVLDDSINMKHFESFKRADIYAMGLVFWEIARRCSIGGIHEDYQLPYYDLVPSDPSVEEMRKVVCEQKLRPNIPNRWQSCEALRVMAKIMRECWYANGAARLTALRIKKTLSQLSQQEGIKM
Assay: Activity inhibition test on ALK5 enzyme (LanthaScreen Eu binding kinase assay)
Details: kinase tracer 178, 60 minutes at room temperature
Method in brief: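 IC50 is the concentration giving 50% inhibition relative to control, taken from fluorescence after 60 min stirring at room temperature. Final mix held kinase 5 nM, Eu-GST binding antibody 2 nM and tracer 178 10 nM. Compounds were serially diluted from 1 μM to 0.0001 μM.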

Cc1cccc(-n2nc(C(=O)Nc3ccc(Cl)cc3)cc2-c2ccc(F)c(-c3cnn(CCO)c3)c2)n1 [Example 225, N-(4-chlorophenyl)-5-(4-fluoro-3-(1-(2-hydroxyethyl)-1H-pyrazol-4-yl)phenyl)-1-(6-methylpyridin-2-yl)-1H-pyrazole-3-carboxyamide]
IC50: 33 nM

Cc1cccc(-n2nc(C(=O)Nc3ccc(S(C)(=O)=O)cc3)cc2-c2ccc(F)c(-c3cnn(CCO)c3)c2)n1 [Example 226, N-(4-(methylsulfonyl)phenyl)-5-(4-fluoro-3-(1-(2-hydroxyethyl)-1H-pyrazol-4-yl)phenyl)-1-(6-methylpyridin-2-yl)-1H-pyrazole-3-carboxyamide]
IC50: 4.7 nM

Cc1cccc(-n2nc(C(=O)Nc3ccccc3F)cc2-c2cc3cnccc3s2)c1 [Example 227, N-(2-fluorophenyl)-5-(thieno[3,2,c]pyridin-2-yl)-1-(m-tolyl)-1H-pyrazole-3-carboxyamide]
IC50: ~100 nM

Reference: patent US10954232B2, “Pyrazole derivative as ALK5 inhibitor and uses thereof” (HANMI PHARMACEUTICAL CO., LTD., priority 2016, dated 2021)
